# “And” between values parts separate entries of the source, which are not always exact repeats. Equal values may be shown once. Positions of bridges follow the written chain, without caps; N, C: chain ends. Non-standard residues stand in square brackets, D forms with d. Residues, ends and D or L forms follow the SMILES beside them. *: point of attachment. DOTA = O=C(O)CN1CCN(CC(=O)O)CCN(CC(=O)*)CCN(CC(=O)O)CC1; Cha = N[C@@H](CC1CCCCC1)C(=O)O
# Tests used:
# uPAR•uPA interaction = biological target: T1, uPAR•uPA interaction (Homo sapiens, UniProt Q03405); assay: SPR competition assay of the uPAR•uPA interaction; assay type: binding; conditions: for IC50: competition of uPAR•uPA interaction, 2 nM uPAR, 20 °C, n = 3
# T1 construct: Recombinant human uPAR^1–283 was expressed; made in house; host or cells: Drosophila melanogaster S2 cells
# T1 sequence (Q03405 23-305): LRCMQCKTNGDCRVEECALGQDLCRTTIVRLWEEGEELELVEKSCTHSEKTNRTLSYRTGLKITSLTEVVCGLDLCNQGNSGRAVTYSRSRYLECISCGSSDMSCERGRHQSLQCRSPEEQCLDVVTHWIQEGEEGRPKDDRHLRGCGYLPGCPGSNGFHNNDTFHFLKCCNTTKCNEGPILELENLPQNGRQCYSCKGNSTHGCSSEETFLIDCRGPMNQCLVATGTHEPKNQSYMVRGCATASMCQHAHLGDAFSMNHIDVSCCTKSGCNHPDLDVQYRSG
# Procedure: The IC50-values of antagonistic peptides on the uPAR•uPA interaction were determined with SPR using a Biacore T200™ or Biacore 3000™ instruments (Cytiva) essentially as described[4],[56],[77]. In brief, we immobilized high levels of pro-uPA^S356A (0.1 pmol pro-uPA/mm^2) on a CM5 sensor chip via amine coupling. The experiments were conducted by injecting 2 nM uPAR in presence of a threefold dilution series of a given antagonistic peptide for 300 s with a flow rate of 50 µL/min at 20 °C. The high immobilization levels result in binding conditions that are entirely controlled by mass transport limitations (MTL). Accordingly, the observed association rates (vobs) are directly proportional to the concentrations of binding-active uPAR in solution. To determine the IC50, we also measured a standard curve of uPAR binding (a twofold dilution series of 0.06 to 2 nM uPAR, linear due to MTL). The running buffer was 10 mM HEPES, 150 mM NaCl, 3 mM EDTA, and 0.05% (v/v) surfactant P-20 at pH 7.4, and the regeneration buffer was 0.1 M acetic acid in 0.5 M NaCl.
# uPAR [1] = biological target: T2, uPAR (Homo sapiens, UniProt Q03405); assay: Nano-DSF thermal stability of uPAR•peptide complexes; conditions: for Tm (apparent melting temperature of uPAR•peptide complex): 15 µM uPAR, 30 µM peptide, PBS pH 7.4, n = 3
# T2 construct: Recombinant human uPAR^1–283 was expressed; made in house; host or cells: Drosophila melanogaster S2 cells
# T2 sequence (Q03405 23-305): as above
# Procedure: The thermal stability of the uPAR•peptide complexes was analyzed with Nano-DSF using a Prometheus NT.48™ (Nanotemper). uPAR (15 µM) was mixed with twofold excess of peptide (30 µM) in PBS pH 7.4 and incubated for 15 min at RT to ensure complex formation. Samples containing either 15 µM uPAR or 30 µM of each peptide were included as controls. The samples were loaded into standard capillaries and in triplicates. To unfold the proteins, the samples were exposed to an increasing temperature gradient from 20 to 95 °C with a ramping rate of 1 °C/min. The excitation power was set to 50% (Ex.280 nm) and the fluorescence emission collected at 330 nm and 350 nm. The melting temperatures of the complexes were determined in the PR.ThermControl software (Nanotemper) from the first derivative of the fluorescence ratio (350 nm/330 nm).
# uPAR [2] = biological target: T2, uPAR; assay: SPR real-time binding kinetics, peptides in solution and immobilised uPAR; conditions: single cycle SPR, immobilised uPAR, 20 °C; for Kd: 1:1 model; for kon: read-out: kon
# Procedure: The real-time binding kinetics of uPAR•peptide interactions were measured with SPR using a Biacore T200™(Cytiva); essentially as described in[56],[77]. In brief, uPAR was covalently immobilised on a CM5 sensor chip via amine coupling resulting in a surface density of 1157–1581 RU (~ 33–44 fmol/mm^2). The binding kinetics for the peptides to immobilised uPAR were measured using a single cycle protocol. In this setup, peptides were injected as five serial two-fold dilutions with a contact time of 200 s. After the last analyte injection, the dissociation time was set to 1000 s. The sensor chip was regenerated with two consecutive injections of 0.1 M acetic acid in 0.5 M NaCl. All experiments were conducted at 20 °C with a flow rate of 50 µL/min in 10 mM HEPES, 150 mM NaCl, 3 mM EDTA, and 0.05% (v/v) surfactant P-20 at pH 7.4. The kinetic rate constants (kon and koff) were determined by non-linear regression fitting of the curves to the simple bimolecular interaction model (BiacoreT200 Evaluation™ 3.0 software).
SMILES,IC50 (uPAR•uPA interaction),Tm (apparent melting temperature of uPAR•peptide complex) (uPAR [1]),"increase in apparent Tm (uPAR [1]; DOTA-conjugated peptides with spacer, compared to (4b))",koff (uPAR [2]),Kd (uPAR [2]),kon (uPAR [2]),fold increase in the IC50-value (uPAR•uPA interaction; compared to AE105 (1)),"decrease in apparent Tm on introduction of spacer (uPAR [1]; (4) vs (1), (6) vs (3))",fold increase in potency on C-terminal amidation (uPAR•uPA interaction; (8) vs (1) and (10) vs (4))
CC(C)C[C@H](NC(=O)[C@H](Cc1ccc(O)cc1)NC(=O)[C@@H](CCCNC(=N)N)NC(=O)[C@@H](CO)NC(=O)[C@H](Cc1ccccc1)NC(=O)[C@H](CC1CCCCC1)NC(=O)[C@H](CC(=O)O)NC(=O)CNC(=O)CNC(=O)[C@@H](CO)NC(=O)CNC(=O)[C@H](CCC(=O)O)NC(=O)[C@H](CCC(=O)O)NC(=O)CN1CCN(CC(=O)O)CCN(CC(=O)O)CCN(CC(=O)O)CC1)C(=O)N[C@@H](Cc1c[nH]c2ccccc12)C(=O)N[C@@H](CO)C(N)=O [10b] ({DOTA}-EEG[dS]GGD[Cha]F[dS][dR]YLWS-NH2),4.8 ± 0.2 nM,66.2 ± 0.3 °C,6–14 °C,0.001367 ± 1e-06 s⁻¹,3.18 nM,429700 ± 400 M⁻¹ s⁻¹,,,
CC(C)C[C@H](NC(=O)[C@H](Cc1ccc(O)cc1)NC(=O)[C@@H](CCCNC(=N)N)NC(=O)[C@@H](CO)NC(=O)[C@H](Cc1ccccc1)NC(=O)[C@H](CC1CCCCC1)NC(=O)[C@H](CC(=O)O)NC(=O)CNC(=O)CNC(=O)[C@@H](CO)NC(=O)CNC(=O)[C@H](CCC(=O)O)NC(=O)[C@@H](N)CCC(=O)O)C(=O)N[C@@H](Cc1c[nH]c2ccccc12)C(=O)N[C@@H](CO)C(=O)O [compound 4] (H-EEG[dS]GGD[Cha]F[dS][dR]YLWS-OH; N-terminus assumed),,55.2 °C and 55.2 ± 0.2 °C,,0.00558 ± 1e-05 s⁻¹,,280000 ± 1000 M⁻¹ s⁻¹,2.7 fold,10 °C,
CC(C)C[C@H](NC(=O)[C@H](Cc1ccc(O)cc1)NC(=O)[C@@H](CCCNC(=N)N)NC(=O)[C@@H](CO)NC(=O)[C@H](Cc1ccccc1)NC(=O)[C@H](CC1CCCCC1)NC(=O)[C@H](CC(=O)O)NC(=O)CNC(=O)CNC(=O)[C@@H](CO)NC(=O)CNC(=O)[C@H](CCC(=O)O)NC(=O)[C@@H](N)CCC(=O)O)C(=O)N[C@@H](Cc1c[nH]c2ccccc12)C(=O)N[C@@H](CO)C(N)=O [compound 10] (H-EEG[dS]GGD[Cha]F[dS][dR]YLWS-NH2; N-terminus assumed),,~ 65 °C,,0.001497 ± 2e-06 s⁻¹,,595000 ± 1000 M⁻¹ s⁻¹,,,5.6 fold
CC(C)C[C@@H]1NC(=O)[C@H](Cc2ccc(O)cc2)NC(=O)[C@H](NC(=O)[C@@H](CO)NC(=O)[C@H](Cc2ccccc2)NC(=O)[C@H](CC2CCCCC2)NC(=O)[C@@H](N)CC(=O)O)CSSC[C@@H](C(N)=O)NC(=O)[C@H](Cc2c[nH]c3ccccc23)NC1=O [compound 9] (H-D[Cha]F[dS][dC]YLWC-NH2; disulfide 5-9; N-terminus assumed),8.9 ± 0.3 nM,,,0.002063 ± 3e-06 s⁻¹,2.9 nM,712000 ± 2000 M⁻¹ s⁻¹,,,
CC(C)C[C@@H]1NC(=O)[C@H](Cc2ccc(O)cc2)NC(=O)[C@H](NC(=O)[C@@H](CO)NC(=O)[C@H](Cc2ccccc2)NC(=O)[C@H](CC2CCCCC2)NC(=O)[C@H](CC(=O)O)NC(=O)CNC(=O)CNC(=O)[C@@H](CO)NC(=O)CNC(=O)[C@H](CCC(=O)O)NC(=O)[C@@H](N)CCC(=O)O)CSSC[C@@H](C(N)=O)NC(=O)[C@H](Cc2c[nH]c3ccccc23)NC1=O [compound 11] (H-EEG[dS]GGD[Cha]F[dS][dC]YLWC-NH2; disulfide 11-15; N-terminus assumed),,~ 65 °C,,0.005015 ± 8e-06 s⁻¹,,500000 ± 2000 M⁻¹ s⁻¹,,,
